Assays:
[1] = in vitro digestibility (lipase hydrolysis, TLC densitometry); type: in vitro ADME, porcine; conditions: pig, pancreatic lipase; in three hours; 37° C., pH 7.1 phosphate buffer with cholic acid; read-out: hydrolyzed (extent of hydrolysis by lipase)
Description: (§1) This example outlines the procedure for estimating the in vitro digestibility of the long chain diol diesters of this invention.
(§2) 1. Buffer: A pH 7.1 phosphate buffer is prepared by dissolving 6.8 g. KH2 PO4 in 1 L. of millipore filtered water (to yield 0.05M phosphate). Fifty mg. Ca(NO3)2 and 5.0 g. cholic acid (Na salt, an ox bile isolate from Sigma) are added to give 300 microM Ca^++ and 0.5 % cholic acid in 0.05M phosphate. The pH is adjusted to approximately 7.1 with solid NaOH. Several drops of Baker "Resi-analyzed" toluene are added to prevent bacterial growth during storage at 3°-5° C.
(§3) 2. Lipase: About 15 mg./mL commercial porcine pancreatic lipase from U.S. Biochemical Corporation is dissolved in buffer.
(§4) 3. Substrates and Standards: A 1.0 mL volumetric flask is charged with an amount of lipid substrate calculated to give a concentration of 200 nanomoles per microliter in Baker "Resi-analyzed" toluene. (The proper concentration may be approximated by doubling the molecular weight of the lipid in question, dividing by 10, and diluting to the mark; this yields about 200 nanomoles per microliter.) This preparation affords the substrate to be used in the hydrolysis reactions. […]

[2] = caloric availability by in vivo animal feeding study (body weight gain); design: species or system male Sprague-Dawley rats; conditions: rats, diet of 50% fort and 21% test compound, 14 days; from weight gain versus corn oil base line
Text: This example illustrates how the novel fat mimetics of this invention are screened for caloric availability by a carefully controlled in vivo animal feeding study.
An experimental relationship between total calories ingested and animal body weight gain is established by monitoring the body weight gain associated with consumption of a nutritionally balanced diet containing varying concentrations of a reference substance such as corn oil which has a known caloric availability. Correlations between total calories ingested and body weight gain are excellent (r=0.99).
Caloric availability of an unknown substance is evaluated by substituting a specific weight of the unknown substance for the reference substance and observing the body weight gain. The gain in body weight is equated to a total number of calories using the correlation previously established for the reference data. The estimated number of calories ingested are divided by the weight of unknown substance to give the apparent calories per gram for the unknown substance. Generally speaking, in these bioavailability studies, the degree of perianal pelt soiling correlates with reduced bioavailability.
The test animals are six-week-old male Sprague-Dawley rats obtained from the Portage, Mich. facility of the Charles River Laboratories, Inc. After acclimation for 15 days, the test duration is 14 days. […]

[3] = test system: porcine pancreatic lipase; experiment: in vitro digestibility (lipase hydrolysis, TLC densitometry); type: in vitro ADME; conditions: in 10 minutes; 37° C., pH 7.1 phosphate buffer with cholic acid
Description: as §1, §2, §3, §4

SMILES	metabolised at 3 h [1] [%]	caloric availability (kcal/gram upon being metabolized) [2]	hydrolysis by lipase (in words) [3]
CCCCCCCC/C=C\CCCCCCCC(=O)OCC(CCCCCCCCCCCC)OC(=O)CCCCCCC/C=C\CCCCCCCC (stereo not drawn) [Example 1, 1,2 Tetradecane dioleate]	~20	about 6.0 kcal/gram	–
CCCCCCCC/C=C\CCCCCCCC(=O)OCC(COC(=O)CCCCCCC/C=C\CCCCCCCC)OC(=O)CCCCCCC/C=C\CCCCCCCC [triolein, reference compound]	–	–	substantially hydrolyzed

Source: patent US5008126A, “Long chain diol diesters as low calorie fat mimetics” (Nabisco Brands, Inc., priority 1989, dated 1991)
